Experimental data from PubChem BioAssay (NCI).
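Results reflect a 48-hour exposure of cells in 96-well plates to compound at five concentrations. The concentration for 50% growth inhibition is given as GI50. TGI denotes the concentration required for complete inhibition of growth.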

Assays:
Assay in all cases: NCI tumour cell line growth inhibition, 48 h
[1] = test system: U251 CNS
[2] = test system: IGROV1 ovarian
[3] = test system: DU-145 prostate
[4] = test system: T-47D breast
[5] = test system: A549 NSCLC
[6] = test system: MCF7 breast
[7] = test system: CCRF-CEM leukemia
[8] = test system: HT29 colon
[9] = test system: HCT-15 colon
[10] = test system: RPMI-8226 leukemia

N=C1N=Nc2nc(C3(c4nc5n(c4O)C(=N)N=N5)Cc4ccccc4C3=O)c(O)n21 (stereo not given)
GI50 [1]: > 100 µM
TGI [1]: > 100 µM
GI50 [2]: 63.7 µM
TGI [2]: > 100 µM
TGI [3]: > 100 µM
TGI [4]: > 100 µM
TGI [5]: > 100 µM
TGI [6]: > 100 µM
TGI [7]: > 100 µM
TGI [8]: > 100 µM
TGI [9]: > 100 µM
TGI [10]: > 100 µM

Cc1cc(Cl)ccc1Nc1nc(C(F)(F)F)ccc1C(=O)N/N=C/c1ccc(F)cc1
GI50 [1]: 1.52 µM
TGI [1]: 10.6 µM
GI50 [2]: 2.11 µM
TGI [2]: 13.9 µM
GI50 [3]: 3.46 µM
TGI [3]: 13.8 µM
GI50 [4]: 1.6 µM
TGI [4]: 7.13 µM
GI50 [5]: 2.08 µM
TGI [5]: 6.01 µM
GI50 [6]: 2.64 µM
TGI [6]: 10.5 µM
GI50 [7]: 0.528 µM
TGI [7]: 5.9 µM
GI50 [8]: 2.83 µM
TGI [8]: 10.3 µM
GI50 [9]: 0.621 µM
TGI [9]: 12.4 µM
GI50 [10]: 1.79 µM
TGI [10]: 7.37 µM

COc1ccc2c(c1)N(CCC1CCCCN1C)c1ccccc1S2 (stereo not given)
TGI [1]: 23.8 µM
TGI [2]: 26.5 µM
TGI [3]: 26.2 µM
TGI [4]: 26.3 µM
TGI [5]: 27.8 µM
TGI [6]: 24.5 µM
TGI [7]: 28.9 µM
TGI [8]: 18.9 µM
TGI [9]: 27.4 µM
TGI [10]: 29.5 µM

Cc1cc(Cl)ccc1Nc1nc(C(F)(F)F)ccc1C(=O)N/N=C/c1c(Cl)cccc1Cl
GI50 [1]: 0.245 µM
TGI [1]: > 70.8 µM
GI50 [2]: 0.357 µM
TGI [2]: 6.29 µM
GI50 [3]: 0.548 µM
TGI [3]: > 100 µM
GI50 [4]: 0.331 µM
TGI [4]: 1.98 µM
GI50 [5]: 0.51 µM
TGI [5]: > 100 µM
GI50 [6]: 0.233 µM
TGI [6]: 0.749 µM
GI50 [7]: 0.107 µM
TGI [7]: > 100 µM
GI50 [8]: 0.443 µM
TGI [8]: > 100 µM
GI50 [9]: 0.145 µM
TGI [9]: > 100 µM
GI50 [10]: 0.194 µM

COc1ccc2c(c1)N(CCO)C1=C(C(=O)OC1)C2c1cccc(Br)c1 (stereo not given)
GI50 [1]: 0.0534 µM
TGI [1]: 15.9 µM
GI50 [2]: 0.088 µM
TGI [2]: > 100 µM
GI50 [3]: 0.156 µM
TGI [3]: 1.15 µM
GI50 [4]: 26.1 µM
TGI [4]: > 100 µM
GI50 [5]: 0.113 µM
TGI [5]: 19.6 µM
GI50 [6]: 0.0391 µM
TGI [6]: > 100 µM
GI50 [7]: 0.217 µM
TGI [7]: > 100 µM
GI50 [8]: 0.0429 µM
TGI [8]: 0.387 µM
GI50 [9]: 0.0659 µM
TGI [9]: > 100 µM
GI50 [10]: 0.184 µM
TGI [10]: 28.4 µM

Cc1ccc(S(=O)(=O)N2C/C(=C\c3cc(F)cc(F)c3)C(=O)/C(=C/c3cc(F)cc(F)c3)C2)cc1
GI50 [1]: 0.178 µM
TGI [1]: 0.452 µM
GI50 [2]: 0.371 µM
TGI [2]: 1.4 µM
GI50 [3]: 0.787 µM
TGI [3]: 2.39 µM
GI50 [4]: 1.77 µM
TGI [4]: 6.59 µM
GI50 [5]: 2.42 µM
TGI [5]: 10.1 µM
GI50 [6]: 0.177 µM
TGI [6]: 1.38 µM
GI50 [7]: 0.0748 µM
TGI [7]: 0.951 µM
GI50 [8]: 0.215 µM
TGI [8]: 0.544 µM
GI50 [9]: 0.22 µM
TGI [9]: 0.966 µM
GI50 [10]: 0.0362 µM
TGI [10]: 0.254 µM

O=C(Nc1cccc(-n2cc(-c3ccncc3)c(-c3ccc(O)c(Cl)c3)n2)c1)Nc1ccc(Cl)c(C(F)(F)F)c1
GI50 [1]: 1.7 µM
TGI [1]: 8.02 µM
GI50 [2]: 2.82 µM
TGI [2]: 8.12 µM
GI50 [3]: 2.54 µM
TGI [3]: 7.76 µM
GI50 [4]: 2.07 µM
TGI [4]: 6.83 µM
GI50 [5]: 1.83 µM
TGI [5]: 5.86 µM
GI50 [6]: 1.8 µM
TGI [6]: 4.34 µM
GI50 [7]: 1.77 µM
TGI [7]: 6.31 µM
GI50 [8]: 3.39 µM
TGI [8]: 11.3 µM
GI50 [9]: 2.58 µM
TGI [9]: 10.9 µM
GI50 [10]: 1.67 µM
TGI [10]: 4.63 µM

COc1cc2c(cc1C)NC(=O)/C2=C/c1c(C)nc2sc(C)cn12
GI50 [1]: > 100 µM
TGI [1]: > 100 µM
GI50 [2]: 26.8 µM
TGI [2]: > 100 µM
GI50 [3]: > 100 µM
TGI [3]: > 100 µM
GI50 [4]: 64.4 µM
TGI [4]: > 100 µM
GI50 [5]: 60.8 µM
TGI [5]: > 100 µM
GI50 [6]: 64.1 µM
TGI [6]: > 100 µM
GI50 [7]: 53.4 µM
TGI [7]: > 100 µM
GI50 [8]: > 100 µM
TGI [8]: > 100 µM
GI50 [9]: > 100 µM
TGI [9]: > 100 µM
GI50 [10]: 31.3 µM
TGI [10]: > 100 µM

Cn1c2ccccc2c(=S)c2cc(NC(=O)CCCCC(=O)Nc3ccc4c(c3)c(=S)c3ccccc3n4C)ccc21
TGI [1]: > 100 µM
TGI [2]: > 100 µM
TGI [3]: > 100 µM
TGI [4]: > 100 µM
TGI [5]: > 100 µM
TGI [6]: > 100 µM
TGI [7]: > 100 µM
TGI [8]: > 100 µM
TGI [9]: > 100 µM
TGI [10]: > 100 µM

O=CNc1ccc2c(c1)Cc1cc([N+](=O)[O-])ccc1-2
GI50 [1]: 2.97 µM
TGI [1]: > 100 µM
GI50 [2]: 3.95 µM
TGI [2]: > 100 µM
GI50 [3]: 2.83 µM
TGI [3]: > 100 µM
GI50 [4]: > 100 µM
TGI [4]: > 100 µM
GI50 [5]: 5.75 µM
TGI [5]: > 77.4 µM
GI50 [6]: 0.561 µM
TGI [6]: > 100 µM
GI50 [7]: 1.31 µM
TGI [7]: > 100 µM
GI50 [8]: 4.5 µM
TGI [8]: > 100 µM
GI50 [9]: 2.86 µM
TGI [9]: > 100 µM
GI50 [10]: > 100 µM
TGI [10]: > 100 µM

CCCNNC(=O)c1ccc(CNC(=O)/C=C/c2ccccc2)cc1
GI50 [1]: 0.198 µM
TGI [1]: 1.71 µM
GI50 [2]: 0.185 µM
TGI [2]: 1.1 µM
GI50 [3]: 0.218 µM
TGI [3]: > 100 µM
GI50 [4]: 0.13 µM
TGI [4]: 0.715 µM
GI50 [5]: 0.31 µM
TGI [5]: > 100 µM
GI50 [6]: 0.216 µM
TGI [6]: > 100 µM
GI50 [7]: 0.115 µM
TGI [7]: > 100 µM
GI50 [8]: 0.12 µM
TGI [8]: > 100 µM
GI50 [9]: 0.305 µM
TGI [9]: > 39 µM
GI50 [10]: 0.101 µM

O=C(Nc1cc(Cl)cc(Cl)c1)c1ccc(NC2=C(Cl)C(=O)N(Cc3ccccc3)C2=O)cc1
GI50 [1]: 3.04 µM
TGI [1]: 12.8 µM
GI50 [2]: 1.57 µM
TGI [2]: 3.32 µM
GI50 [3]: 0.96 µM
TGI [3]: 6.91 µM
GI50 [4]: 30.9 µM
TGI [4]: > 100 µM
GI50 [5]: 10.8 µM
TGI [5]: 32.4 µM
GI50 [6]: 1.29 µM
TGI [6]: 4.86 µM
GI50 [7]: 3.17 µM
TGI [7]: 12.1 µM
GI50 [8]: 16.8 µM
TGI [8]: > 100 µM
GI50 [9]: 4.68 µM
TGI [9]: 19.7 µM
GI50 [10]: 1.74 µM
TGI [10]: 4.2 µM

Cn1cc(C2=C(c3cccc(NCC(O)CO)c3)C(=O)NC2=O)c2cc(Cl)ccc21 (stereo not given)
GI50 [1]: 2.33 µM
TGI [1]: 13.7 µM
GI50 [2]: 5.62 µM
TGI [2]: 15.1 µM
GI50 [3]: 5.58 µM
TGI [3]: > 19.3 µM
GI50 [4]: 4.29 µM
TGI [4]: 15 µM
GI50 [5]: 4.74 µM
TGI [5]: 17.6 µM
GI50 [6]: 0.356 µM
TGI [6]: 12.6 µM
GI50 [7]: 3.92 µM
TGI [7]: > 21.8 µM
GI50 [8]: 2.78 µM
TGI [8]: 11.8 µM
GI50 [9]: 5.97 µM
TGI [9]: > 25 µM
GI50 [10]: 5.56 µM
TGI [10]: 13.9 µM
